# Assay results from patent US4845102A, “Therapeutic agent for the treatment of peptic ulcer disease” (Hoechst Japan Limited, priority 1986, dated 1989).
# Experiments:
# [1] = test system: stress-induced gastric ulcer; assay: Protective effect on gastric ulcer induced by restraint plus water-immersion stress in rats; format: in vivo, Male Sprague-Dawley rats; settings: for Ulcer index: mean ± S.E.
# Experimental: 1.1 Protective efrfect on gastric ulcer induced by restraint plus water-immersion stress in rats
# Male Sprague-Dawley rats weighing 250-300 g wer eused in groups of 5-24. The animals were given the compounds by the oral route after fastin overnight. Immediately, under light ether anesthesia they were placed in a restraint box and immersed in water at 20° C. for 6 to 7 hours. Then the animals were sacrificed, and their stomachs were isolated, inflated with 4 ml of 1 % formalin for 10 minutes, opened along the greater cruvature, and examined for the rpesence of agstric erosions. The longest axis of each erosion induced on the glandular section of the stomach was measured, and the sum of the lengths was defined as an ulcer index.
# [2] = test system: ethanol-induced gastric ulcer; assay: Protective effect on ethanol-induced gastric ulcer in rats; format: in vivo, Male Sprague-Dawley rats; settings: for Ulcer index: mean ± S.E.
# Experimental: 1.2 Protective effect on ethanol-induced gastric ulcer in rats
# Male Sprague-Dawley rats weighing 250-300 g were used in groups of 5-21. After fasting overnight, the animals were given orally the compounds. Thirty minutes later they received absolute ethanol (1 ml/body) orally and were sacrificed after 60 minutes. The stomach was removed and examined for erosions. The ulcer index was obtained in the same way as under 1.1.
# in vivo [3] = settings: mouse, mice
# gastric hemorrhage = assay: Inhibitory effect on gastric hemorrhage in rats (pylorus ligation, 2-deoxy-D-glucose plus indomethacin); format: in vivo, Male Sprague-Dawley rats; settings: for Amount of hemoglobin: mean ± S.E.; for effect on gastric hemorrhage (in words): rats
# Experimental: 1.3 Inhibitory effect on gastric hemorrhage in rats
# The method of Maeda-Hagiwara and Watanabe (Eur. J. Pharmacol. 89, 243-250, 1983) was used. Male Sprague-Dawley rats weighing 250-300 g were employed in groups of 10-14. After 24 hours fasting, the pylorus was ligated under light ether anesthesia. Then, 200 mg/kg of 2-deoxy-D-glucose was administered intravenously in combination with 40 mg/kg of indomethacin suspended in 0.5 % carboxymethylcellulose by the subcutaneous route. After 1 hour the test compounds wer einjected intraperitoneally. Two hours later, the animals were exsanguinated under ether anesthesia and their stomachs were isolated. Gastric juice was collected and filtered. The amount of discharged blood was expressed as that of hemoglobin in mg per rat.
# in vivo [4] = settings: rat, rats
# rats = assay: 3-month oral toxicity study in rats; format: in vivo; settings: 3 months
# Experimental: Compound 2 was administered orally to rats at 150 and 50 mg/kg/day for 3 months. This study included: observation of toxic signs during the treatment; macroscopic and microscopic examinations of main organs including the brain, heart, liver, kidney, bone marrow, adrenal, and lung; and biochemical tests of the blood and urine.
# peptic ulcer disease [5] = assay: Antiulcer effect, general statements; settings: in vivo
# [6] = c.f. U.S. Pat. No. 4,289,776; cited from earlier work
# [7] = Toxicity, general statements; settings: in vivo
# peptic ulcer disease [8] = settings: Vorobyev and Samsonov, Ter. Ark. 57, 52-55, 1985; cited from earlier work
# [9] = Table 3 (efficacy comparison), 10 mg/kg po
# [10] = Table 5 (efficacy comparison), 10 mg/kg po
# [11] = ip, intraperitoneal administration
Structure (SMILES),"Inhibition [1, 9] [%]","Ulcer index [1, 9] [mm]","Inhibition [2, 10] [%]","Ulcer index [2, 10] [mm]",LD50 (in vivo [3]; [11]) [mg/kg],"Inhibition ([1]; Table 2, 10 mg/kg po) [%]","Ulcer index ([1]; Table 2, 10 mg/kg po) [mm]","Inhibition ([1]; Table 2, 25 mg/kg po) [%]","Ulcer index ([1]; Table 2, 25 mg/kg po) [mm]","Inhibition ([2]; Table 4, 10 mg/kg po) [%]","Ulcer index ([2]; Table 4, 10 mg/kg po) [mm]","Inhibition ([2]; Table 4, 25 mg/kg po) [%]","Ulcer index ([2]; Table 4, 25 mg/kg po) [mm]","Inhibition ([2]; Table 4, 50 mg/kg po) [%]","Ulcer index ([2]; Table 4, 50 mg/kg po) [mm]",Amount of hemoglobin (gastric hemorrhage; 25 mg/kg i.p.) [mg/rat],Amount of hemoglobin (gastric hemorrhage; 50 mg/kg i.p.) [mg/rat],effect on gastric hemorrhage (in words) (gastric hemorrhage),further results
CCn1cnc2c1c(=O)n(CCCCC(C)=O)c(=O)n2C [Compound 1],77.2,4.5 ± 0.9,84.6,25.3 ± 10.9,250 to 500,,,,,,,,,,,,,,
"CCCn1cnc2c1c(=O)n(CCCCC(C)=O)c(=O)n2C [Compound 2, 1,2,3,6-tetrahydro-3-methyl-1-(5-oxohexyl)-7-propyl-purine-2,6-dione]",56.3,8.6 ± 2.3,86.9,21.6 ± 4.6,296,64.3,13.3 ± 5.4,75.6,9.1 ± 3.1,61.5,51.0 ± 13.2,75.4,32.6 ± 9.1,89.7,13.6 ± 9.3,14.4 ± 1.4,12.5 ± 1.6,inhibitory effects on gastric hemorrhage,"Inhibition ([1]; Table 2, 5 mg/kg po): 39.4%; Ulcer index ([1]; Table 2, 5 mg/kg po): 22.6 ± 9.8 mm; effectiveness relative to pentoxifylline in improving stress-induced gastric ulcers ([1]; versus pentoxifylline): 2 to 3 times; Amount of hemoglobin (gastric hemorrhage; 12.5 mg/kg i.p.): 27.0 ± 3.0 mg/rat; LD50 (in vivo [3]; intravenous injection): 168 mg/kg; LD50 (in vivo [3]; oral dosing): 900 mg/kg; LD50 (in vivo [4]; intravenous injection): 180 mg/kg; LD50 (in vivo [4]; oral dosing): 1150 mg/kg; toxic signs, macroscopic and microscopic organ examinations, biochemical tests of blood and urine (rats; 50 mg/kg/day): no abnormalities at either level of treatment; toxic signs, macroscopic and microscopic organ examinations, biochemical tests of blood and urine (rats; 150 mg/kg/day): no abnormalities at either level of treatment except that slight salivation occurred at 150 mg/kg/day; antiulcer effect (in words) (peptic ulcer disease [5]): improving effects on gastric ulcer; pharmacological effects shown previously (in words) [6]: dilate cerebral blood vessels, improve cerebral energy metabolism, red blood cell deformability, and cerebral edema, and decrease blood viscosity; toxicity (in words) [7]: low toxicity"
CCCn1cnc2c1c(=O)n(CCCC(C)=O)c(=O)n2C [Compound 3],67.0,6.5 ± 1.6,,,300 to 600,,,,,,,,,,,,,,
"CC(=O)CCCCn1c(=O)c2c(ncn2C)n(C)c1=O [Pentoxifylline, 1,2,3,6-tetrahydro-3,7-dimethyl-1-(5-oxohexyl)-purine-2,6-dione, reference compound]",12.7,17.2 ± 5.6,78.8,34.9 ± 10.9,,25.8,24.4 ± 4.0,52.0,15.8 ± 4.1,50.3,65.8 ± 12.1,63.9,47.8 ± 15.3,85.9,18.7 ± 6.2,19.6 ± 2.0,17.3 ± 2.3,did not have a statistically significant effect,"Inhibition ([1]; Table 2, 50 mg/kg po): 83.9%; Ulcer index ([1]; Table 2, 50 mg/kg po): 5.3 ± 1.2 mm; antiulcer effect reported in the literature (in words) (peptic ulcer disease [8]): antiulcer effects"
